The target of this test is Mitogen-activated protein kinase kinase kinase kinase 1 (Homo sapiens, UniProt Q92918). Kind of test: Inhibition of recombinant human HPK1 expressed in baculovirus infected insect cells using SRKS1 peptide as substrate incubated for 15 mins followed by substrate addition and measured after 3 hrs by TR-FRET assay. A general note: TR-FRET usually uses a lanthanide donor and a delayed reading to cut background.
Sequence of Mitogen-activated protein kinase kinase kinase kinase 1 (Q92918 whole entry): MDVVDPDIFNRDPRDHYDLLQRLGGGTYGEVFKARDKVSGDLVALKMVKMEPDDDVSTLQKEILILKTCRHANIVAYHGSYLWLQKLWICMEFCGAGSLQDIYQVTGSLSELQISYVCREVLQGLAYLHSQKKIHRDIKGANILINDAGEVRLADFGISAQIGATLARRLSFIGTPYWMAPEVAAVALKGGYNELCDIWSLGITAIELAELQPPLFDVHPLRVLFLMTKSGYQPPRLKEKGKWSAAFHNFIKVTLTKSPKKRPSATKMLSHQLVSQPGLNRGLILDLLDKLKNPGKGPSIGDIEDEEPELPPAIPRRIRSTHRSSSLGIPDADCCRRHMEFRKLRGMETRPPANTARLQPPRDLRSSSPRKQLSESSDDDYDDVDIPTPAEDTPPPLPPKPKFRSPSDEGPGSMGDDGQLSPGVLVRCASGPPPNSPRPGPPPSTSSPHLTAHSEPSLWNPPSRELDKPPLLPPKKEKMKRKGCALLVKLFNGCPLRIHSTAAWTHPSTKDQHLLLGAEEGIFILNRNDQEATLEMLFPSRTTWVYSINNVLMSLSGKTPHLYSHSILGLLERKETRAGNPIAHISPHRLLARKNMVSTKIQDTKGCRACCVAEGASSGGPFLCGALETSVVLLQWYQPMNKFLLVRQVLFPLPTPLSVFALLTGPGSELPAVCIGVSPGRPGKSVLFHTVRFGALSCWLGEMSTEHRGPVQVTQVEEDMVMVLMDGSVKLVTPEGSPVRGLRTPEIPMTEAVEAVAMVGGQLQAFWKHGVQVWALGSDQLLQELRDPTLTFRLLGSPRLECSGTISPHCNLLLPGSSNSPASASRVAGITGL

In general, IC50 refers to the point on the concentration scale where inhibition reaches its midpoint. As to `Cc1c(-c2cc(F)c3c(c2)/C(=C/c2ccc(C4CC4)[nH]2)C(=O)N3)cnc2c1NCCO2`, the IC50 is 50 pM.

These data come from ChEMBL document CHEMBL4732267, “Novel Substituted Exomethylene-oxindoles as HPK1 Inhibitors” (ACS Med Chem Lett, 2021).
